US20240189387A1, “DOSING REGIMENS FOR HEMATOPOIETIC STEM CELL MOBILIZATION FOR STEM CELL TRANSPLANTS IN MULTIPLE MYELOMA PATIENTS” (Ensoma, Inc., priority 2021, published 2024)
Read-outs that look alike come from different tables or passages of the source.

Assays:
CD34+ cells [1] = conditions: historical plerixafor alone data, Devine et al., Blood 2008; cited from earlier work
CD34+CD90+CD45RA− cells = experiment: Phase 1 trial: mobilization of CD34+CD90+CD45RA− cells into peripheral blood (flow cytometry); conditions: plerixafor alone
[2] = tested on: graft cell subsets (T cells, B cells, NK cells); conditions: cited from earlier work
CD34+ cells [3] = experiment: Phase 1 trial: mobilization of CD34+ cells into peripheral blood (multicolor flow cytometry); conditions: for % ≥20/μL peak CD34+ / Peak CD34+ (#/μL) Median (range): Day 1
[4] = Phase 1 trial: treatment emergent adverse events; conditions: Part B, combination n = 38; plerixafor n = 14
Description: FIG. 1A depicts the treatments provided to patient cohorts enrolled in Part A and Part B of a Phase 1 clinical trial as well as measurable endpoints.
Patients were monitored for emergent adverse events.

[5] = tested on: hematopoietic stem and progenitor cells; conditions: U.S. Pat. No. 6,447,766; cited from earlier work
[6] = Chen et al., 2019, 2 LP plerixafor, 1 LP G-CSF
[7] = Devine et al, 2008, yield of 1 LP
[8] = Part B, plerixafor (pooled placebo + plerixafor), listed as plerixafor
[9] = Part C, 8 patients on combination (0.03 or […]), plerixafor alone
[10] = Part C, plerixafor (pooled placebo + plerixafor), listed as plerixafor

## c1cc(CN2CCCNCCNCCCNCC2)ccc1CN1CCCNCCNCCCNCC1 [Plerixafor, 1,1′-[1,4-phenylenebis(methylene)]-bis-1,4,8,11-tetra-azacyclotetradecane]
CD34+ cells [1]
  patients with peak CD34+ ≥20 cells/μL (%): 28% (7/25)
  patients with peak CD34+ ≥40 cells/μL (%): 4% (1/25)
CD34+CD90+CD45RA− cells
  median peak CD34+CD90+CD45RA− cells: 8 cells/μL
[2]; Chen et al., 2019, 2 LP for plerixafor (N = 50+), 1 LP for G-CSF (N = 112+)
  graft CD34+ Median (range): 4.7 (0.9-9.6) ×10^6/kg
[2]; [6]
  graft CD3+ Median (range): 6.0 (2.7-13.0) ×10^8/kg
  graft CD4+ Median (range): 3.6 (2.0-9.4) ×10^8/kg
  graft CD8+ Median (range): 2.2 (0.5-5.0) ×10^8/kg
  graft CD19+ Median (range): 1.5 (0.2-7.4) ×10^8/kg
  graft CD56+ Median (range): 0.4 (0.0-1.1) ×10^8/kg
[2]; [7]
  graft CD3+ Median (range): 4.6 (1.5-7.8) ×10^8/kg
  graft CD4+ Median (range): 3.2 (1-5.7) ×10^8/kg
  graft CD8+ Median (range): 1.3 (0.4-3.4) ×10^8/kg
  graft CD19+ Median (range): 1.0 (0.2-2.4) ×10^8/kg
  graft CD56+ Median (range): 0.3 (0.1-1.0) ×10^8/kg
[2]; Devine et al, 2008, yield of 1 LP, plerixafor N = 24, G-CSF N = 8
  graft CD34+ Median (range): 2.9 (1.2-6.3) ×10^6/kg
CD34+ cells [3]; Part B, plerixafor
  % ≥40/μL peak CD34+: 21%
CD34+ cells [3]; Part B, plerixafor (pooled placebo + plerixafor)
  % ≥20/μL peak CD34+: 64%
CD34+ cells [3]; [8]
  % ≥20/μL peak CD34+: 64%
  Peak CD34+ (#/μL) Median (range): 26 #/μL
CD34+ cells [3]; [9]
  patients achieving peak CD34+ count of at least 20 cells per microliter: none
  patients achieving peak CD34+ count of at least 40 cells per microliter: none
CD34+ cells [3]; Part C, plerixafor (pooled placebo + plerixafor)
  % ≥20/μL peak CD34+: 0%
CD34+ cells [3]; [10]
  % ≥20/μL peak CD34+: 0%
  Peak CD34+ (#/μL) Median (range): 18 #/μL
CD34+ cells [3]; Part C, plerixafor, first day
  % ≥40/μL peak CD34+: 0%
CD34+ cells [3]; Part C, pooled placebo + plerixafor, Day 2
  Peak CD34+ (#/μL) Median: 17 #/μL
CD34+ cells [3]; Pooled B + C, plerixafor
  % ≥40/μL peak CD34+: 14%
  % ≥20/μL peak CD34+: 50%
CD34+ cells [3]; Pooled B + C, plerixafor, listed as plerixafor
  % ≥20/μL peak CD34+: 56%
CD34+ cells [3]; plerixafor alone
  patients with peak CD34+ ≥20 cells/μL (%): 50% (7/14)
  patients with peak CD34+ ≥40 cells/μL (%): 14% (2/14)
[4]
  Abdominal discomfort/pain: 4 (28.6) n (%)
  Back pain/Musculoskeletal pain: 2 (14.3) n (%)
  Diarrhea: 5 (35.7) n (%)
  Dizziness: 1 (7.1) n (%)
  Dysgeusia: 2 (14.3) n (%)
  Headache: 1 (7.1) n (%)
  Nausea: 2 (14.3) n (%)
  Vomiting: 1 (7.1) n (%)

## Gro-β T N65D: SEQ ID NO: 4; Gro-β T with aspartic acid in place of asparagine at position 65
[5]
  potency (hematopoietic stem and progenitor cell mobilization) relative to Gro-β T: substantially greater than that of Gro-β T
